56 molecules from a melting point compilation (Tetko et al.) can be followed below.

Structures are written as SMILES. Starred links: 1 amine or outer side, 2 acyl side, 3 side chain; linkers in the order of their positions; H or OH if unused. Non-standard residues stand in square brackets, D forms with d. Residues, ends and D or L forms follow the SMILES beside them. Phe(2-Me) = Cc1ccccc1C[CH](N)C(=O)O; X2 = CC(F)(F)CC(N[*:1])C(=O)[*:2]; Suc = O=C(CCC(=O)[*:2])[*:1]; Tle = CC(C)(C)[CH](N)C(=O)O

Usually melting point stands for the temperature, or range, at which the solid turns liquid. Molecule `CCCCCCCCCCCCCCCCCCN(CCCCCCCCCCCCCCCCCC)C(=O)c1c(NS(=O)(=O)c2cccc(C(C)=O)c2)cc2ccccc2c1OC(=O)c1ccccc1` yielded a melting point of 91 to 93 °C.

`C=CC(=O)OCCCCCCCCCCCOc1ccc(-c2nc(-c3ccccc3)nc(-c3ccc(OCCCCCCCCCCCOC(=O)C=C)cc3O)n2)c(O)c1`: the melting point was 93.3 °C.

In turn, `CC1(C)CC(N(c2nc(N(C3CC(C)(C)NC(C)(C)C3)C3CC(C)(C)NC(C)(C)C3)nc(N(C3CC(C)(C)NC(C)(C)C3)C3CC(C)(C)NC(C)(C)C3)n2)C2CC(C)(C)NC(C)(C)C2)CC(C)(C)N1` yielded a melting point of 325 to 330 °C.

Consider `O=Cc1ccc(OC(F)F)c(O)c1`, for which the melting point was 82 to 83 °C.

For `CCCCCCCC/C=C\CCCCCCCCN`, the melting point lay within 15 to 22 °C.

With `Cc1ccc2cccc(OCc3c(Cl)ccc(S(=O)(=O)N4CCC[C@H]4C(=O)NC4CCN(C(=O)CCCN(C=NC(=O)OC(C)(C)C)NC(=O)OC(C)(C)C)CC4)c3Cl)c2n1`, the melting point fell in the range of 102 to 105 °C.

Regarding `COC(=O)Cc1ccc(C(NC(=O)CCC(Cc2ccccc2)(NC(=O)c2ccc(N(C)C3CCc4cc5nc(C)n(COC(=O)C(C)(C)C)c(=O)c5cc43)cc2F)C(=O)O)C(=O)OC)cc1` (stereo unspecified), the melting point fell in the range of 85 to 90 °C.

The molecule `C=CCN1C(C)(C)CC(N(CCCC)c2nc(N(CCCC)C3CC(C)(C)N(CC=C)C(C)(C)C3)nc(N(CCCC)C3CC(C)(C)N(CC=C)C(C)(C)C3)n2)CC1(C)C` gave a melting point of 161 to 163 °C.

Consider `COc1ccc([N+](=O)[O-])cc1C(/C=C/c1ccc(I)cc1)S(=O)(=O)C(/C=C/c1ccc(I)cc1)c1cc([N+](=O)[O-])ccc1OC` (stereo unspecified), for which the melting point lay in the range of 218 to 221 °C.

On to `O=P(O)(C(F)(F)C(F)(F)C(F)(F)C(F)(F)C(F)(C(F)(F)F)C(F)(F)F)C(F)(F)C(F)(F)C(F)(F)C(F)(F)C(F)(C(F)(F)F)C(F)(F)F`, for which the melting point fell in the range of 91 to 94 °C.

On to `Cn1nc(COC(=O)CCC(=O)OCc2nc(NCCCOc3cccc(CN4CCCCC4)c3)n(C)n2)nc1NCCCOc1cccc(CN2CCCCC2)c1`, for which the melting point was 80 to 81.5 °C.

`CNC(=O)[C@@H](NC(=O)[C@@H](NC(=O)c1c(I)c(NC(C)=O)c(I)c(C(=O)O)c1I)C(C)C)C(C)C`: the melting point lay in the range of 247 to 248 °C.

`CCC1(CC)c2cc(-c3nc4ccccc4s3)ccc2-c2ccc(N(Cc3ccccc3)c3ccc4c(c3)C(CC)(CC)c3cc(-c5nc6ccccc6s5)ccc3-4)cc21` showed a melting point of 174 to 176 °C.

The molecule `CC1(C)CC(OC(=O)CCCCCCCCC(=O)OC2CC(C)(C)N(OC3CCCCCCCCCCC3)C(C)(C)C2)CC(C)(C)N1OC1CCCCCCCCCCC1` registered a melting point of 70 to 78 °C.

Molecule `CCCCCCCCCCCCN(c1nc(NCC(O)C2CC(C)(C)NC(C)(C)C2)nc(NCC(O)C2CC(C)(C)NC(C)(C)C2)n1)c1nc(NCC(O)C2CC(C)(C)NC(C)(C)C2)nc(NCC(O)C2CC(C)(C)NC(C)(C)C2)n1` (stereo unspecified) registered a melting point of 106 to 110 °C.

`CCCNC(Cc1cc(I)c(Oc2cc(I)c(O)c(I)c2)c(I)c1)C(=O)O` (stereo unspecified) displayed a melting point of 212 to 213 °C.

`CC(C)CCCC(C)CCC1(CCC(C)CCCC(C)C)c2cc(Br)ccc2-c2ccc(-c3nc4cc5sc(-c6ccc7c(c6)C(CCC(C)CCCC(C)C)(CCC(C)CCCC(C)C)c6cc(Br)ccc6-7)nc5cc4s3)cc21` (stereo unspecified) gave a melting point of 163 to 166 °C.

The molecule `CCCCCCCCCCCCCC=CC(OC(=O)c1ccccc1)C(COC1OC(CO)C(O)C(OCCCCC(C(=O)OC(C)(C)C)C(=O)OC(C)(C)C)C1O)NC(=O)CCCCCCCCCCCCCCC` (stereo unspecified) came in with a melting point of 131 to 132 °C.

`O=C(O)c1ccnc(F)c1` came in with a melting point of 195 to 197 °C.

The molecule `CCOC(=O)C(C)c1cc(C)c(C(=O)c2ccc(Cl)cc2)n1C` (stereo unspecified) came in with a melting point of 88 to 90 °C.

In turn, `CS(=O)(=O)c1ccc(-c2cc3c(cc2C(=O)c2cc4c(cc2-c2ccc(S(C)(=O)=O)cc2)OC(c2cc(F)cc(F)c2)CO4)OCC(c2cc(F)cc(F)c2)O3)cc1` (stereo unspecified) gave a melting point of 191 to 193 °C.

Consider `O=C(O)c1ccccc1Oc1ccc(C(F)(F)F)cc1N(S(=O)(=O)c1cc(C(F)(F)F)cc(C(F)(F)F)c1)S(=O)(=O)c1cc(C(F)(F)F)cc(C(F)(F)F)c1`, for which the melting point lay within 204 to 205 °C.

For `CCCNc1nc2cccc(C(=O)OCC)c2n1Cc1ccc(-c2ccccc2-c2nnn[nH]2)cc1`, the melting point was 170 to 172 °C.

`COc1cc(OC)c(C=CC(c2ccc(OC)c(NC(=O)C(C)O)c2)S(=O)(=O)C(C=Cc2c(OC)cc(OC)cc2OC)c2ccc(OC)c(NC(=O)C(C)O)c2)c(OC)c1` (stereo unspecified) returned a melting point of 174 to 176 °C.

Take `CCCCCCCCCCCCCCCCCCN(CCCCCCCCCCCCCCCCCC)C(=O)c1cc(NS(=O)(=O)c2cnc(NN)c(Cl)c2)c2ccccc2c1O`: the melting point was 75 to 77 °C.

`CCC(C)C1NC(=O)C(CC(C)C)NC(=O)C2CCCN2C(=O)C(C(C)C)NC(=O)C(Cc2ccc(O)cc2)NC(=O)C2CCCN2C(=O)C2CCCN2C(=O)C(C(C)CC)NC1=O` (stereo unspecified) (cyclo(IIPPYVPL); configuration not given here) registered a melting point of 180 to 182 °C.

On to `O=C1OC(O)c2cccc(F)c21` (stereo unspecified), for which the melting point fell in the range of 126 to 127 °C.

As for `Cc1ccccc1CC(NC(=O)C(CCC(=O)O)NC(=O)C(CC(=O)O)NC(=O)CCC(=O)O)C(=O)NC(C(=O)NC(CC(C)C)C(=O)NC(C=O)CC(C)(F)F)C(C)(C)C` (stereo unspecified) (Suc-DE[Phe(2-Me)][Tle]L[X2]-aldehyde; configuration not given here), the melting point was in the range of 128 to 130 °C.

`CN=S(=O)(Cc1ccc(Cl)nc1)c1nc(-c2ccc(OC)cc2)cs1` (stereo unspecified) displayed a melting point of 160 to 163 °C.

`CC(O)CN(C)C` (stereo unspecified) returned a melting point of -40 °C.

With `Cc1ccc(S(=O)(=O)N2CCN(C)CCN(S(=O)(=O)c3ccc(C)cc3)CCN(S(=O)(=O)c3ccc(C)cc3)CCN(S(=O)(=O)c3ccc(C)cc3)CC2)cc1`, the melting point was in the range of 170 to 171 °C.

In turn, `COC(=O)c1ccccc1CN1C(=O)C2(COc3cc4c(cc32)OCO4)c2ccccc21` (stereo unspecified) registered a melting point of 166 to 167 °C.

As for `O=C(CN1CCN(C(=O)c2cc(C(F)(F)F)cc(C(F)(F)F)c2)[C@H](Cc2c[nH]c3ccccc23)C1)N1CCN(C(c2ccccc2)(c2ccccc2)c2ccccc2)CC1`, the melting point lay in the range of 160 to 166 °C.

For `CC(C)[Si](OC(=O)Cc1cc(I)c(Oc2cc(I)c(OCC3CO3)c(I)c2)c(I)c1)(C(C)C)C(C)C` (stereo unspecified), the melting point was determined as 120 °C.

`CC(C)(C)c1cc(-c2cc(C(C)(C)C)cc(C(C)(C)C)c2OCP(=O)(c2ccccc2)c2ccccc2)c(OCP(=O)(c2ccccc2)c2ccccc2)c(C(C)(C)C)c1`: the melting point was in the range of 211 to 212 °C.

Molecule `CC(C#N)N1CCC(c2noc3cc(F)ccc23)CC1` (stereo unspecified) yielded a melting point of 133 to 134 °C.

Consider `O=C(CCl)Nc1nc(-c2ccco2)c(C(=O)c2ccccn2)s1`, for which the melting point is 184 to 185 °C.

In turn, `Oc1ccccc1N1CCOCC1` yielded a melting point of 128 °C.

`CCCCCCCS(=O)(=O)c1cc2c3cc(S(=O)(=O)CCCCCCC)c(S(=O)(=O)CCCCCCC)cc3c3cc(S(=O)(=O)CCCCCCC)c(S(=O)(=O)CCCCCCC)cc3c2cc1S(=O)(=O)CCCCCCC` had a melting point of 256 to 258 °C.

The molecule `CCC(C)(C)c1ccc(OCC(=O)Nc2cccc(C(=O)Nc3[nH]n(-c4c(Cl)cc(Cl)cc4Cl)c(=O)c3OC(=O)Nc3ccccc3)c2)c(C(C)(C)CC)c1` yielded a melting point of 72 to 77 °C.

The molecule `Nc1ncnc2c1c(I)cn2COC(O)CCO` (stereo unspecified) displayed a melting point of 177 to 178 °C.

In the case of `CC(=O)Nc1cc(COC2OC(COC(=O)c3ccc(Cl)cc3)C(OC3OC4COC(c5ccccc5)OC4C(OC(C)=O)C3OC(C)=O)C(OC(C)=O)C2OC(C)=O)ccc1Cl` (stereo unspecified), the melting point was in the range of 114 to 115 °C.

`CCCCCCCCCCCCCCCCCCN(Cc1c(C)cc(C(C)(C)C)c(O)c1C)S(=O)(=O)c1ccc(-c2ccc(S(=O)(=O)N(CCCCCCCCCCCCCCCCCC)Cc3c(C)cc(C(C)(C)C)c(O)c3C)cc2)cc1` yielded a melting point of 208 to 210 °C.

`COC(=O)c1ccc(Cn2c(C(=O)C3CCN(CCC4(c5ccc(OC)c(OC)c5)CCN(C(=O)c5cc(OC)c(OC)c(OC)c5)C4)CC3)nc3ccccc32)cc1` (stereo unspecified) displayed a melting point of 100 to 104 °C.

The molecule `CC(C)c1ccc(S(=O)(=O)OC(c2cc(C(OS(=O)(=O)c3ccc(C(C)C)cc3)(C(F)(F)F)C(F)(F)F)cc(C(OS(=O)(=O)c3ccc(C(C)C)cc3)(C(F)(F)F)C(F)(F)F)c2)(C(F)(F)F)C(F)(F)F)cc1` displayed a melting point of 105 °C.

In turn, `CCCCCCCCCCCCNC(=O)c1cccc(Sc2c(Nc3cc(C(=O)NCCCCCCCCCCCC)ccc3Cl)nn(-c3c(Cl)cc(Cl)cc3Cl)c2OS(=O)(=O)c2ccccc2)c1` gave a melting point of 112 to 114 °C.

`CC(C)(CCCCCCCCC(C)(C)NC(=O)C(C)(C)Cc1cc(C(C)(C)C)c(O)c(C(C)(C)C)c1)NC(=O)C(C)(C)Cc1cc(C(C)(C)C)c(O)c(C(C)(C)C)c1` came in with a melting point of 126 °C.

With `C=CC(=O)OCCCCCCOc1ccc(C(=O)Oc2ccc(OC(=O)c3ccc(OCCCCCCOC(=O)C=C)cc3)c(C(=O)OCCCCCCCCOc3ccc(C#N)cc3)c2)cc1`, the melting point was 54.5 °C.

As to `BrCCCCCCCCCCCBr`, the melting point was -11 °C.

`Cc1ccc(Cl)cc1C(N)=NO`: the melting point was 111 to 113 °C.

Take `CCN(C(=O)OC(C)(C)C)C(=NC(=O)OC(C)(C)C)N1CCN(C(=O)[C@@H]2CCCN2S(=O)(=O)c2ccc(Cl)c(COc3cccc4ccc(C)nc34)c2Cl)CC1`: the melting point came out at 95 °C.

Regarding `O=C(Nc1cc(Cl)cc(Cl)c1)c1c(O)ccc2ccccc12`, the melting point was 246 to 248 °C.

The molecule `COc1cc(C(=O)O)ccc1Cc1cn(C(C)=O)c2ccc(NC(=O)CC3CCCC3)cc12` gave a melting point of 245 to 247 °C.

Consider `Brc1ccc2c(c1)C(CCCCCCCCCCn1c3ccccc3c3ccccc31)(CCCCCCCCCCn1c3ccccc3c3ccccc31)c1cc(Br)ccc1-2`, for which the melting point fell in the range of 94 to 96 °C.

In turn, `CC(C)[C@H](NC(=O)N(C)Cc1csc(N)n1)C(=O)N[C@@H](Cc1ccccc1)[C@H](O)[C@@H](O)[C@H](Cc1ccccc1)NC(=O)[C@@H](NC(=O)N(C)Cc1csc(N)n1)C(C)C` displayed a melting point of 122 to 124 °C.

`CCCc1nc(C(C)(C)O)c(C(=O)OC2OC(=O)c3ccccc32)n1Cc1ccc(-c2ccccc2-c2nnnn2C(c2ccccc2)(c2ccccc2)c2ccccc2)cc1` (stereo unspecified) yielded a melting point of 118 to 120 °C.
